From patent US20030212121A1, “Substituted N-(1,4,5,6-tetrahydro-cyclopentapyrazol-3-yl) derivatives, their production and use as pharmaceutical agents” (priority 2001, published 2003)

Structure (SMILES)	melting point
COc1ccccc1-c1ccc(CC(=O)Nc2n[nH]c3c2CCC3)cc1 [Example 1.4]	150 °C
O=C(Cc1ccc(-c2ccccc2F)cc1)Nc1n[nH]c2c1CCC2 [Example 1.3]	179 to 181 °C
O=C(Cc1ccc(-c2ccc(F)cc2)cc1)Nc1n[nH]c2c1CCC2 [Example 1.2]	161 to 163 °C
COc1cccc(-c2ccc(CC(=O)Nc3n[nH]c4c3CCC4)cc2)c1 [Example 1.5]	110 to 114 °C
CC(=O)c1cccc(-c2ccc(CC(=O)Nc3n[nH]c4c3CCC4)cc2)c1 [Example 1.7]	150 °C
CC(=O)c1ccc(-c2ccc(CC(=O)Nc3n[nH]c4c3CCC4)cc2)cc1 [Example 1.8]	112 to 114 °C
COc1ccc(-c2ccc(CC(=O)Nc3n[nH]c4c3CCC4)cc2)cc1 [Example 1.6]	168 to 172 °C
O=C(Cc1ccc(-c2cccc(F)c2)cc1)Nc1n[nH]c2c1CCC2 [Example 1.0, 2-(3′-Fluoro-biphenyl-4-yl)-N-(1,4,5,6-tetrahydro-cyclopentapyrazol-3-yl)-acetamide]	180 to 181 °C
